Measured values taken from patent US10308617B2, “Triazole benzamide derivatives and the compositions and methods of treatment regarding the same” (An2H Discovery Limited, priority 2016, dated 2019).

Columns and labels:
[1] = Oral Bioavailability (PO) and Pharmacokinetics Assay; type: in vivo, Sprague-Dawley rats; settings: rat; for AUC(0-t) / clearance / C0 (back-extrapolated initial plasma concentration after IV dose) / Vd: male, Sprague-Dawley, plasma; for C0 (back-extrapolated initial plasma concentration after IV dose): read-out: C0 or Cmax (ng/mL): C0; for Vd: iv, read-out: Vss; for Vd / Vss: 1 mg/kg
Method: The pharmacokinetics and oral bioavailability of various compounds was evaluated following IV or PO administration to fasted male Sprague-Dawley rats (N=3/route/dose). Each compound was administered to fasted male Sprague-Dawley rats as a single dose of 1 mg/kg (IV) or 5 mg/kg (PO). For IV dosing, each compound was formulated in 10% DMA/15% Solutol/75% HPβ-CD (20%) as a 1 mg/mL solution for IV (1 mL/kg) and for PO (5 mL/kg) administrations.
Blood samples (0.250 mL) were collected into EDTA tubes then processed to generate plasma samples. Blood samples were collected at pre-dose, 0.083, 0.25, 0.5, 1, 2, 4, 8 and 24 hours post-dose administration. Plasma concentrations of each compound were determined using LC-MS/MS with a lower limit of quantitation of 1.0 ng/mL. The pharmacokinetic parameters were determined by non-compartmental methods using WinNonlin.
The pharmacokinetic parameters of each compound were determined by non-compartmental analysis (Model 201 for IV administration and Model 200 for PO administration) using WinNonlin Version 6.4 (Pharsight, Mountain View, Calif.). The area under the curve from the time of dosing to the last measurable concentration, AUC(0-t), was calculated by the linear trapezoidal rule. The area under the concentration-time curve extrapolated to infinity, AUC(0-∞), was calculated as follows: AUC(0-∞)=AUC(0-t)+Clast/k
Where Clast is the last measurable concentration and k is the first order rate constant associated with the terminal elimination phase, estimated by linear regression of log concentration versus time. The half-life (T1/2) of the terminal elimination phase was estimated based on the following equation: T1/2=0.693/k
K was determined based on at least three timepoints with R^2≥0.9. Additional parameters were calculated as follows: CL=Dose/AUC(0-∞)
Where CL is the clearance of An2H compound in L/hr/kg, Dose is the administered dose in mg/kg. Mean residence time (MRT) was calculated as follows: MRT=AUMC(0-∞)/AUC(0-∞)
Where area under the first moment curve extrapolated to infinity (AUMC(0-∞)) was calculated as follows: AUMC(0-∞)=AUMClast+tlast*Clast/k+Clast/k^2
The steady state volume of distribution (Vss) was calculated as follows: Vss=CL×MRT.
The oral bioavailability based on AUC(0-t) was calculated as follows: F (%)=AUCPO/AUCIV×DoseIV/DosePO×100. For IV administration, the initial concentration, Co is reported and is an extrapolated value. For PO administration, the maximum concentration, Cmax is report and is an observed value.

[2] = system: subcutaneous HCT-116 (colon cancer) xenograft; test: In Vivo Cancer Xenograft Assay, HCT-116; design: species or system nude mice; settings: 5 or 10 mg/kg daily IP, tumor volume to day 26
Method: (§1) Compound F was evaluated for in vivo therapeutic efficacy in the treatment of subcutaneous HCT-116 (colon cancer) and Calu-6 (lung cancer) xenograft models in nude mice.
(§2) Each mouse was inoculated subcutaneously at the flank region with either HCT-116 or Calu-6 tumor cells ([…]) in 0.1 ml of 1×PBS mixed with Matrigel (1:1) for tumor development and xenotransplantation.
(§3) Twenty (20) animals with approx […] tumors were selected for HCT-116 follow up experiment and randomly placed into Groups 1, 2, 3, and 4, wherein Group 1 was for mice administered with a vehicle negative control; Group 2 was positive control of Mice treated with Bevacizumab at 5 mg/kg every three days; Group 3 was mice treated with 5 mg/kg of Compound f daily for up to 20 days; and Group 4 was mice treated with 10 mg/kg of Compound F daily for up to 20 days. The vehicle with or without drug was administered to the mouse by intraperitoneal injection. […]
(§4) After tumor cells inoculation, the animals were checked daily for morbidity and mortality. […] Death and observed clinical signs were recorded. Tumor volumes were measured every three days in two dimensions using an electronic caliper, and the volume data are expressed in mm^3 using the formula: V=0.5 a×b2 where a and b are the long and short diameters of the tumor, respectively. Tumor volume average was then recorded for each day for groups 1-4 until day 26. […]

[3] = system: subcutaneous Calu-6 (lung cancer) xenograft; test: In Vivo Cancer Xenograft Assay, Calu-6; design: species or system nude mice; settings: 5 or 10 mg/kg daily IP
Method: as §1, §2, §3, §4

| SMILES | AUC(0-t) ([1]; IV bolus 1 mg/kg) | clearance ([1]; IV bolus 1 mg/kg) | C0 (back-extrapolated initial plasma concentration after IV dose) ([1]; IV bolus 1 mg/kg) | AUC(0-t) ([1]; PO 5 mg/kg) | Vd ([1]; IV bolus 1 mg/kg) | Vss ([1]; IV bolus 1 mg/kg) | delay of subcutaneous HCT-116 tumor growth [2] | delay of subcutaneous Calu-6 tumor growth [3] |
| --- | --- | --- | --- | --- | --- | --- | --- | --- |
| O=C(/C=C/c1ccccc1)Nc1nc(NC(=O)c2ccccc2)nn1-c1ccccc1 [Compound C, N-(5-cinnamamido-1-phenyl-1H-1,2,4-triazol-3-yl)benzamide] | 1030 ng·h/mL | 16.6 mL/min/kg | 3980 ng/mL | 114 ng·h/mL | 0.42 L/kg | 0.416 L/kg |  |  |
| O=C(Nc1nc(NC(=O)c2ccccc2)n(-c2ccccc2)n1)c1ccccc1 [Compound A, N,N′-(1-phenyl-1H-1,2,4-triazole-3,5-diyl)dibenzamide] | 1100 ng·h/mL | 15.7 mL/min/kg | 4520 ng/mL | 371 ng·h/mL | 0.38 L/kg | 0.381 L/kg |  |  |

Second part, led by results:

| AUC(0-t) ([1]; IV bolus 1 mg/kg) | clearance ([1]; IV bolus 1 mg/kg) | C0 (back-extrapolated initial plasma concentration after IV dose) ([1]; IV bolus 1 mg/kg) | AUC(0-t) ([1]; PO 5 mg/kg) | Vd ([1]; IV bolus 1 mg/kg) | Vss ([1]; IV bolus 1 mg/kg) | SMILES | delay of subcutaneous HCT-116 tumor growth [2] | delay of subcutaneous Calu-6 tumor growth [3] |
| --- | --- | --- | --- | --- | --- | --- | --- | --- |
| 1370 ng·h/mL | 12.2 mL/min/kg | 6740 ng/mL | 410 ng·h/mL | 0.4 L/kg | 0.401 L/kg | Cc1ccccc1C(=O)Nc1nc(NC(=O)c2ccccc2)n(-c2ccccc2)n1 [Compound H] |  |  |
| 902 ng·h/mL | 18.4 mL/min/kg | 2120 ng/mL | 172 ng·h/mL | 0.71 L/kg | 0.707 L/kg | Cc1ccccc1C(=O)Nc1nc(NC(=O)c2ccccc2)nn1-c1ccccc1 [Compound K, N-(5-benzamido-2-phenyl-1,2,4-triazol-3-yl)-2-methyl-benzamide] |  |  |
| 4270 ng·h/mL | 4.03 mL/min/kg | 5980 ng/mL |  | 0.406 L/kg |  | Cc1ccccc1C(=O)Nc1nc(NC(=O)c2ccccc2C)n(-c2ccccc2)n1 [Compound F, 2-methyl-N-[5-[(2-methylbenzoyl)amino]-1-phenyl-1,2,4-triazol-3-yl]benzamide] | effective of delaying growth | effective of delaying growth |
